Assay results from US5696276A, “Process for preparing 5,8-dihydroxynaphthoquinone derivatives, novel 5,8-dihydroxynaphthoquinone derivatives and their use as anticancer agent” (Kuhnil Pharmaceutical Co., Ltd., priority 1993, dated 1997).
In brackets after ≈: the same amount, converted by molar mass.

Tests used:
[1] = test system: A549 cancer cells; test: Cytotoxic activity against A549 cancer cells (sulforhodamin B method); assay type: cell-based; settings: Homo sapiens; A549 cells, SRB method, 48 hours; read-out: ED50, cytotoxic activity against A549
Procedure: The cytotoxic activity against A549 cancer cells was determined using a method for measuring sulforhodamin B (SRB), which was developed in the year 1989 by NIC for measuring anticancer activity of the drug in vitro. For the experiment, cells under subculturing were separated from the attached surface with trypsin-CDTA solution and then dispensed into a 24-well flat-bottom microplate (Falcon) so that the number of cells per well is 8×10^4 (A549). The microplate was incubated in a CO2 incubator for 24 hours to attach the dispensed cells to bottom. The medium was removed with aspirator. Then, 100 μl of the solution of the test compounds diluted in a log-dose of 6 kinds of concentration was added to each well containing cells, in a multiple of 3. The microplate was incubated for further 48 hours. In addition, the diluted solution of the test compounds above was filtered through a 0.22 μm filter, before addition to the cells, to keep the experiment under sterilized condition. The cells were incubated with the test compounds for 48 hours and then the medium was removed from each well. 100 μl of 10% trichloroacetic acid (TCA) was added to each well and then the plate was allowed to stand at 4° C. for one hour to fix the cells to the bottom of plate. After fixing the cells, the plate was washed 5 to 6 times with water to completely remove any remaining TCA solution and then dried at room temperature until water is no longer present. To the completely dried plate was added the dying solution of 0.4% SRB dissolved in 1% acetic acid in an amount of 250 μl per well to stain the cells for 30 minutes and then the plate was washed again 5 to 6 times with 1% acetic acid solution to remove the remaining SRB which is not bound to the cells. The stained cell plate was dried again at room temperature. Then, the dying solution was carefully dissolved in a certain amount of 10 mM Tris so that the O.D. value in the control group at 520 nm is 0.8-1.0 Å (optical density), and the optical density at 520nm was determined. The ED50 value was obtained from the determined optical density. To calculate the activity of the drug against cancer cells, the number of cells (Tz) at the beginning of the addition of drug, the number of cells (C) after incubation with the medium in the absence of drug for 48 hours and the number of cells (T) after incubation in the presence of drugs at each concentration for 48 hours were determined.
The anticancer activity of the test compounds was determined form the following equations. Specifically, in the […] the equation (T-Tz)/(C-Tz)×100 was used and in the case of Tz<T the equation (T-Tz)/Tz×100 was used. Then the IC50 value wich is the concentration of drug which inhibits the growth of cancer cells by 50% was calcualted from the above calculated values using a data regressive function of LOTUS programme and the cytotoxic activities of the test compounds were compared with each other.

[2] = test system: S-180 sarcoma cells; test: Animal experiment using Sarcoma S-180 cells (survival of mouse); assay type: in vivo, male ICR mouse; settings: ip, S-180 ICR mouse, intraperitoneal, 7 to 8 injections; for responders at 15 µmol/kg / response vs control in vivo at 15 µmol/kg: daily dose 15 μmole (mg/kg/day given per compound); for responders at 10 µmol/kg / response vs control in vivo at 10 µmol/kg: daily dose 10 μmole (mg/kg/day given per compound)
Procedure: In this experiment, healthy male ICR mouse weighing 20 to 25 g were used as test animal and were fed with water and feed without any restriction in the chamber controlled at the temperature of 23° to 24° C. As the feed, the antibiotic-free feed for mouse was used.
S-180 cells which were incubated for 7 days within abdominal cavity of ICR mouse were separated together with ascites. To the separated cells was added sterilized cold physiological saline and the mixture was centrifuged with 400×g for 2 minutes to separate the cell precipitate. The separated cell precipitate was suspended again in sterilized cold physiological saline and then centrifuged to remove the supernatant. Only S-180 cells were taken, excluding any red bllod cells incorporated therein, washed three times with the same method as above, and then suspended to obtain the cell suspension in concentration of 10^7 cells/ml by counting the number of cells with a haemacytometer. Each 0.1 ml of this cell suspension was transplanted in an abdominal cavity.
After 24 hours from the transplantation, mouse were divided so that each group contains 8 to 9 mouse. The test sample was dissolved in a predetermined amount of dimethylsulfoxide to prepare the stock solution which was stored at 4° C. 30 μl of the stock solution was taken and then mixed with 1.5 ml of physiological saline. 0.1 ml of this mixture was intraperitoneally injected to the test animal. To the control group, 2% dimethylsulfoxide-physiological saline solution was injected. Meanwhile, doxorubicin which is used as the comparative drug was dissolved in 2% dimethylsulfoxide-physiological saline solution and then injected in an amount of 0.5 mg(titer)/kg. The schedule for injection comprises a total of 7 to 8 injections in the manner that after the transplantation of cancer cells 0.1 ml of the test sample per a day is administered for 2 to 4 days followed by the rest for one day. The survival rate was calculated on the basis of the date on which all of one control group is died (approximately 18 to 20 days). The survival rate (T/C, %) was calculated by the following equation as proposed in NIC's protocol: [formula]

[3] = test system: K-562 cells; test: Cytotoxic activity against K-562 cells; assay type: cell-based; settings: Homo sapiens; K562 cells, 48 hours, 37° C.; read-out: ED50, cytotoxic activity against K562
Procedure: As in the test for the cytotoxic activity against L1210 cells, the test samples were dissoved in ethanol or dimethylsulfoxide in a certain concentration. 0.1 ml of the sample solution was mixed with 0.9 ml of a fresh medium to prepare the dilutions. To each two test tubes having a screw cap were added 100, 50, 25 μl, respectively, of the sample dilutions by means of a micropipet. To each test tube for the test group and the control group (2√n: n=number of the samples) was added 5 ml of the dilutions of HL-60 cells and K-562 cells which were cultured and activated before 24 hours from the beginning of experiment and then diluted in a concentration of 1×10^5 cells/mi. All test tubes were cultured for 48 hours in a CO2 incubator at 37° C. and then the number of cells was counted using a haemacytometer.
(§1) The ED50 value is defined as a concentration (μg/ml) of the sample which inhibits the growth of cancer cells by 50% of the control group and determined according to a method described in NIC's mannual (NIC=National Cancer Institue, U.S.A.). The growth rate Y(%) of cells in the presence of the test sample in each concentration was calculated according to the followign equation: […]
(§2) In the above equation, T means the average cell number per ml in the test group after incubation for 48 hours in the presence of the test samples in each concentration, C means the average cell number per ml in the control group after incubation for 48 hours, and Co means the average cell number per ml in the control group at the beginning of incubation. The Y(%) value at each concentration and log10 value of each concentration were obtained and the regression curve was constructed according to the following equation from those obtained values. In this case, when all the Y(%) value obtained at each concentration is greater than 55% or lower than 45%, the experiment was repeatedly conducted.
(§3) To construct the regression curve Y=A+BX the values A and B were obtained using the following equation. [formula]
(§4) In the above, the value N is the number of selected points which is greater than 2 and lower than, or identical with, the number of cencentration of the test sample, Xi is log(concentration) i, and Yi is the growth ratio at (concentration)i. The value of ED50 was obtained for those obtained slope and intercept.

[4] = test system: L1210 cells; test: Cytotoxic activity against L1210 cells; assay type: cell-based; settings: Mus musculus; L1210 cells, 48 hours, 37° C.; read-out: ED50, cytotoxic activity against L1210
Procedure: To obtain L1210 cells in a logarithmic phase for cytotoxic activity test, in a 250 ml Erlenmeyer flask with a screw cap including Fisher medium warmed to 36° to 37° C. L1210 cells were adjusted to a concentration of 2-3×10^5 cells/ml and then cultured, before 24 hours from the beginning of experiment. Then, the culture solution thus obtained was suspended to prepare a L1210 cell suspension having a concentration of about 0.8-1.0×10^6 cells/ml. Test sample was dissoved in ethanol or dimethylsulfoxide in a certain concentration just before the experiment. 0.1 ml of the sample solution was diluted 10 times with 0.9 ml of a fresh medium. To each screw-capped test tube were added 100, 50, 25 μl, respectively, of the sample dilutions and then added 5 ml of the cell suspension (5×10^4 cells/ml) prepared above to use as the test group. To the test tubes for the control group (2√n: n=number of the samples), only 5 ml of the cell suspension was added. All test tubes were cultured for 48 hours in a CO2 incubator at 37° C. and then the number of cells was counted using a haemacytometer.
as §1, §2, §3, §4

[5] = 1200 h, read-out: Number of mouse survived for 50 days (converted)

| SMILES | IC50 [1] [µg/mL] | responders at 5 µmol/kg ([2]; 1200 h, daily dose 5 μmole (mg/kg/day given per compound), read-out: Number of mouse survived for 50 days (converted)) [%] | response vs control in vivo at 5 µmol/kg ([2]; daily dose 5 μmole (mg/kg/day given per compound), read-out: T/C) [%] | IC50 [3] [µg/mL] | IC50 [4] [µg/mL] | responders at 15 µmol/kg [2, 5] [%] | response vs control in vivo at 15 µmol/kg ([2]; read-out: T/C) [%] | responders at 10 µmol/kg [2, 5] [%] | response vs control in vivo at 10 µmol/kg ([2]; read-out: T/C) [%] |
| --- | --- | --- | --- | --- | --- | --- | --- | --- | --- |
| CCCCCC(OC(C)=O)C1=CC(=O)c2c(O)ccc(O)c2C1=O (centres unmarked) [2-(1-acetoxyhexyl)-5,8-dihydroxy-1,4-naphthoquinone] | 0.7 (≈ 2.11 µM) | 25 | 150 | 0.01 (≈ 0.0301 µM) | 0.08 (≈ 0.241 µM) |  |  |  |  |
| CC(C)CCOC(CCC(C)C)C1=CC(=O)c2c(O)ccc(O)c2C1=O (centres unmarked) [2-[1-(3-methylbutoxy)-4-methylpentyl]-5,8-dihydroxy-1,4-naphthoquinone] | 1.1 (≈ 3.05 µM) |  |  | 0.09 (≈ 0.25 µM) | 0.2 (≈ 0.555 µM) | 0 | 186 |  |  |
| CCCCCCCCCC(OC(C)=O)C1=CC(=O)c2c(O)ccc(O)c2C1=O (centres unmarked) [2-(1-acetoxydecyl)-5,8-dihydroxy-1,4-naphthoquinone] | 0.3 (≈ 0.772 µM) |  |  | 0.1 (≈ 0.257 µM) | 0.4 (≈ 1.03 µM) |  |  | 14.3 | 197 |
| CCCCCCCC(=O)OC(CCCCC)C1=CC(=O)c2c(O)ccc(O)c2C1=O (centres unmarked) [2-(1-octanoyloxyhexyl)-5,8-dihydroxy-1,4-naphthoquinone] | 2.1 (≈ 5.04 µM) |  |  | 0.3 (≈ 0.72 µM) | 0.2 (≈ 0.48 µM) | 0 | 95 |  |  |
| CCCCCC(=O)OC(CCC(C)C)C1=CC(=O)c2c(O)ccc(O)c2C1=O (centres unmarked) | 0.4 (≈ 1.03 µM) |  |  | 0.05 (≈ 0.129 µM) | 0.3 (≈ 0.772 µM) |  |  | 0 | 151 |
| CCCCCCCC(=O)OC(CCC(C)C)C1=CC(=O)c2c(O)ccc(O)c2C1=O (centres unmarked) [2-(1-octanoyloxy-4-methylpentyl)-5,8-dihydroxy-1,4-naphthoquinone] | 1.7 (≈ 4.08 µM) |  |  | 0.6 (≈ 1.44 µM) | 0.5 (≈ 1.2 µM) | 0 | 131 |  |  |
| CC/C=C/CC(=O)OC(CCCCCCCCC)C1=CC(=O)c2c(O)ccc(O)c2C1=O (stereo not drawn) [2-[1-(3-trans-hexenoyloxy)-decyl]-5,8-dihydroxy-1,4-naphthoquinone] | 7.1 (≈ 16 µM) |  |  | 0.6 (≈ 1.36 µM) | 0.6 (≈ 1.36 µM) |  |  | 0 | 130 |
